In patent US20120324604A1, “PESTICIDAL MIXTURES CONTAINING ISOXAZOLINE DERIVATIVES AND A FUNGICIDE” (priority 2010, published 2012):
Where “and” joins values, the source holds several entries; their conditions need not be identical. Equal values may be shown once.

Assays:
Format in all cases: cell-based
Gaeumannomyces graminis = Gaeumannomyces graminis growth inhibition, microtiter plate, photometric
Procedure: Mycelial fragments of the fungus from cryogenic storage were directly mixed into nutrient broth (potato dextrose broth). After placing a (DMSO) solution of the test compounds into a microliter plate (96-well format) the nutrient broth containing the fungal spores was added.

Botrvtis cinerea = Botrvtis cinerea (Gray Mould) growth inhibition, microtiter plate, photometric; settings: alone
Procedure: Botrvtis cinerea (Gray Mould):
(§1) Conidia of the fungus from cryogenic storage were directly mixed into nutrient broth (potato dextrose broth). After placing a (DMSO) solution of the test compounds into a microtiter plate (96-well format) the nutrient broth containing the fungal spores was added.

[1] = system: Mycosphaerella arachidis (syn. Cercospora arachidicola); experiment: Mycosphaerella arachidis (Brown Leaf Spot of Groundnut) growth inhibition, microtiter plate, photometric; settings: alone
Procedure: Mycosphaerella arachidis (syn. Cercospora arachidicola), Brown Leaf Spot of Groundnut (Peanut):
as §1

Septoria tritici = Septoria tritici (Leaf Blotch) growth inhibition, microtiter plate, photometric; settings: for AVERAGE DEAD IN %: alone; for AVERAGE DEAD IN % COMPOUND IV: COMPOUND IV alone; for AVERAGE DEAD IN % Chlorothalonil: Chlorothalonil alone
Procedure: Septoria tritici (Leaf Blotch):
as §1

Fusarium culmorum = Fusarium culmorum (Root Rot) growth inhibition, microtiter plate, photometric
Procedure: Fusarium culmorum (Root Rot):
as §1

Pythium ultimum = Pythium ultimum (Damping Off) growth inhibition, microtiter plate, photometric
Procedure: Pythium ultimum (Damping Off):
Mycelial fragments of the fungus, prepared from a fresh liquid culture, were directly mixed into nutrient broth (potato dextrose broth). After placing a (DMSO) solution of the test compounds into a microtiter plate (96-well format) the nutrient broth containing the fungal spores was added.

[2] = system: Glomerella lagenarium (syn. Colletotrichum lagenarium); experiment: Glomerella lagenarium (Anthracnose of Cucurbits) growth inhibition, microtiter plate, photometric; settings: alone
Procedure: Glomerella lagenarium (syn. Colletotrichum lagenarium), Anthracnose of Cucurbits:
as §1

Rhizoctonia solani = Rhizoctonia solani (Foot Rot, Damping-Off) growth inhibition, microtiter plate, photometric
Procedure: Rhizoctonia solani (Foot Rot, Damping-Off):
Mycelial fragments of the fungus from cryogenic storage were directly mixed into nutrient broth (potato dextrose broth). After placing a (DMSO) solution of the test compounds into a microtiter plate (96-well format) the nutrient broth containing the fungal spores was added.

`COC(c1ccc(Cl)cc1Cl)C(C)NC(=O)c1cn(C)nc1C(F)F` (centres unmarked) [COMPOUND IV] was tested, and the “AVERAGE DEAD IN %” value (Gaeumannomyces graminis; single compound at 0.25 ppm AI) was 0%, the “AVERAGE DEAD IN %” value (Gaeumannomyces graminis; single compound at 0.5 ppm AI) was 0% and the “AVERAGE DEAD IN %” value (Gaeumannomyces graminis; single compound at 1 ppm AI) was 0%. For the same compound, the “AVERAGE DEAD IN %” value (Botrvtis cinerea; 0.03125 ppm AI) was 0%, the “AVERAGE DEAD IN %” value (Botrvtis cinerea; 0.0625 ppm AI) was 20% and the “AVERAGE DEAD IN %” value (Botrvtis cinerea; 0.125 ppm AI) was 20%. The “AVERAGE DEAD IN %” value (Botrvtis cinerea; 0.25 ppm AI) was 50%, the “AVERAGE DEAD IN %” value (Botrvtis cinerea; 0.5 ppm AI) was 70% and the “AVERAGE DEAD IN %” value (Botrvtis cinerea; 1 ppm AI) was 90%. For the same compound, the “AVERAGE DEAD IN %” value ([1]; 0.0625 ppm AI) was 20%, the “AVERAGE DEAD IN %” value ([1]; 0.125 ppm AI) was 90% and the “AVERAGE DEAD IN %” value ([1]; 0.125 PPM AI) was 90%. For the same compound, the “AVERAGE DEAD IN %” value (Septoria tritici; 0.125 ppm AI) was 20%, the “AVERAGE DEAD IN %” value (Septoria tritici; 0.25 ppm AI) was 90% and the “AVERAGE DEAD IN % COMPOUND IV” value (Septoria tritici; 0.25 ppm AI) was 70% and 90%. The “AVERAGE DEAD IN % COMPOUND IV” value (Septoria tritici; 0.5 ppm AI) was 90% and 100%, the “AVERAGE DEAD IN %” value (Fusarium culmorum; alone, 1 PPM AI) was 20% and the “AVERAGE DEAD IN %” value (Fusarium culmorum; alone, 2 PPM AI) was 50%. For the same compound, the “AVERAGE DEAD IN %” value (Fusarium culmorum; single compound, 0.5 PPM AI, 48 hrs, 24° C.) was 0%, the “AVERAGE DEAD IN %” value (Fusarium culmorum; single compound, 1 PPM AI, 48 hrs, 24° C.) was 20% and the “AVERAGE DEAD IN %” value (Fusarium culmorum; single compound, 2 PPM AI, 48 hrs, 24° C.) was 50%.
For `N#Cc1c(Cl)c(Cl)c(Cl)c(C#N)c1Cl` [Chlorothalonil, reference compound], the “AVERAGE DEAD IN %” value (Pythium ultimum; single compound at 0.25 ppm AI) was 0%, the “AVERAGE DEAD IN %” value (Pythium ultimum; single compound at 0.5 ppm AI) was 0% and the “AVERAGE DEAD IN %” value (Pythium ultimum; single compound at 1 ppm AI) was 0%. The “AVERAGE DEAD IN %” value (Gaeumannomyces graminis; single compound at 0.25 ppm AI) was 0%, the “AVERAGE DEAD IN %” value (Gaeumannomyces graminis; single compound at 1 ppm AI) was 50% and 100% and 90% and the “AVERAGE DEAD IN %” value (Gaeumannomyces graminis; single compound at 2 ppm AI) was 90% and 100%. For the same compound, the “AVERAGE DEAD IN %” value ([1]; 0.125 ppm AI) was 20%, the “AVERAGE DEAD IN %” value ([1]; 0.5 ppm AI) was 70% and the “AVERAGE DEAD IN %” value ([1]; 0.25 PPM AI) was 20%. The “AVERAGE DEAD IN %” value ([1]; 0.5 PPM AI) was 100% and 70%, the “AVERAGE DEAD IN %” value ([2]; 0.25 ppm AI) was 50% and 90% and the “AVERAGE DEAD IN %” value ([2]; 0.5 ppm AI) was 70%. The “AVERAGE DEAD IN %” value (Septoria tritici; 0.25 ppm AI) was 0%, the “AVERAGE DEAD IN %” value (Septoria tritici; 0.5 ppm AI) was 50% and the “AVERAGE DEAD IN % Chlorothalonil” value (Septoria tritici; 0.03125 ppm AI) was 0%. For the same compound, the “AVERAGE DEAD IN % Chlorothalonil” value (Septoria tritici; 0.0625 ppm AI) was 70%, the “AVERAGE DEAD IN % Chlorothalonil” value (Septoria tritici; 0.25 ppm AI) was 20% and the “AVERAGE DEAD IN %” value (Septoria tritici; 1 ppm AI) was 70%. For the same compound, the “AVERAGE DEAD IN %” value (Rhizoctonia solani; applied alone, 0.5 ppm AI) was 70%, the “AVERAGE DEAD IN %” value (Rhizoctonia solani; applied alone, 1 ppm AI) was 90% and the “AVERAGE DEAD IN %” value (Rhizoctonia solani; single compound at 1 ppm AI) was 0%. For the same compound, the “AVERAGE DEAD IN %” value (Rhizoctonia solani; single compound at 2 ppm AI) was 0% and the “AVERAGE DEAD IN %” value (Fusarium culmorum; alone, 0.5 PPM AI) was 0%.
